Experimental data published in patent US8518956B2, “1-(1-(2-ethoxyethyl)-3-ethyl-7-(4-methylpyridin-2-ylamino)-1H-pyrazolo[4,3-d]pyrimidin-5-yl) piperidine-4-carboxylic acid and salts thereof” (priority 2005, dated 2013).
Like-named read-outs stand apart in the source and are kept apart here.

How the values were obtained:
[1] = system: spontaneously hypertensive rats (SHR); assay: Method 12: SHR Rat Combination Therapy, blood pressure by telemetry; assay type: in vivo; details: 0.007% in drinking water, day 7
PDE5 enzyme = molecular target: T1, PDE5 enzyme (Homo sapiens, UniProt O76074); assay: Method 1: Human Platelet PDE5 Enzyme Inhibition Scintillation Proximity Assay; assay type: biochemical; details: METHOD 1: PDE5 IC50, Table B, WO2004096810 examples
T1 construct: The PDE5 enzyme isolated from human platelets; from tissue; host or cells: human platelets
Summary of the method: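 IC50 fitted from 10-point half-log dose-response curves run in duplicate, with inhibition relative to uninhibited controls. SPA beads capture [3H]GMP produced when platelet-derived PDE5 acts for 60 min at 30 °C on 500 nM cGMP (3:1 cold:labelled) in pH 7.4 Tris/MgCl2/BSA buffer.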

PDE11 enzyme = molecular target: T2, PDE11 enzyme (Homo sapiens, UniProt Q9HCR9, DUP921-921); assay: Method 3: Human Recombinant PDE11 Enzyme Inhibition Scintillation Proximity Assay (SPA); assay type: biochemical; details: WO2004096810 examples
T2 construct: FLAG (N); made in house; host or cells: Sf9 insect cells (baculovirus, pFastBac)
Procedure: Method 3: Human Recombinant PDE11 Enzyme Inhibition Scintillation Proximity Assay (SPA)
PDE11 Expression and Purification:
Incubate at 27° C. with 220 rpm shaking for 48 hours. Harvest the infected cells by pelleting at 2000 rpm for 10 minutes at 4° C. Store the infected cell pellet at −80° C. until ready for purification. Resuspend the thawed cell pellets to 1×10^7 cells/ml (=20 ml buffer consisting of 20 mM Hepes (pH7.2), 1 mM EDTA, 20 mM sucrose, 150 mM NaCl and protease inhibitor tablets). Mix thoroughly and allow to stand on ice for 10 minutes. Sonicate for 5×5 seconds, on ice. Spin the mixture at 12,000 rpm for 10 minutes at 4° C. in SS34. Store the insoluble pellet at −80° C., and proceed to the purification of the soluble material. • (b) Purification: Prepare the column (1.0 cm diameter, Kontes) by rinsing the empty column twice with TBS. Then mix beads (Anti-FLAG M2 Agarose, Sigma) with TBS and add to the column—allow the beads to settle. Wash the column with 3 column volumes of 0.1M glycine (pH3.5). […] Apply the extract to the column and allow the extract to enter by gravity flow. Reapply the flow-through. Wash the column with 15 column volumes of TBS. Elute the protein with 5×1 ml aliquots of FLAG peptide (Sigma) (i.e., 100 ug/ml in TBS). Elute the remaining protein with 1 ml 0.1M glycine, and immediately add 25 ul 1M Tris pH8 to neutralize. Method 3A: Alternative Human Recombinant PDE11 Enzyme Inhibition Scintillation Proximity Assay (SPA)

PDE6 enzyme = details: read-out: METHOD 2: PDE6 IC50; Table F, WO2004096810 examples
From the text: Method 2: Human Retina PDE6 Enzyme Inhibition Scintillation Proximity Assay (SPA)
The inhibition of PDE6 enzyme activity by a test compound can be measured in accordance with the in vitro assay of Method 1, but instead using semi-purified PDE6 enzyme isolated from human, bovine or canine retina in place of PDE5 enzyme. […] [3H]GMP binds to yttrium silicate SPA beads and is detected by scintillation counting. • PDE6 Purification: PDE6 can be isolated and purified from the following: Soluble rod PDE6/Rod Outer Segment PDE6 from Bovine eyes (Charles River Ltd, France); Cone PDE6 from Canine eyes (LAS); or Soluble rod and Cone PDE6 from Human eyes (I.I.A.M.).
While supporting the eye with the cornea uppermost, make a small incision through the conjunctiva below the level of the iris. The incision should be sufficient to allow the humor to escape through the cut. Using fine scissors, cut around the cornea to enable it to be lifted off as a flap. Using a small hook, engage the lens and gently pull it out of orbit, taking care not to pull out the retina at the same time. Allow the retina to drop down of its own accord to the base of the orbit.
Lift the retina with care and locate the optic nerve. Cut through the optic nerve and transfer the retina to a small dish containing a few ml of homogenisation buffer. Gently float the retina out on the surface of the buffer and remove any obvious pigmented material from the iris. Place the retina in a second dish with clean buffer to remove last traces of pigment and then transfer to a 50 ml Corning Costar centrifuge tube (Sigma) and keep on ice. • PDE6 Isolation and Purification from Retina: Allow 2 mls of the homogenisation buffer per bovine retina and 1 ml per retina for dog and human. Homogenise using hand-held homogeniser 3×5 second bursts cooling on ice between each burst. Filter homogenate through two layers of surgical gauze. Spin at 100,000 g for 60 minutes at 4° C. […] Run through FPLC (Pharmacia FPLC LKB/FRAC-100, Pharmacia) or aliquot and store in liquid nitrogen as needed. Method 2A: Alternative Human Retina PDE6 Enzyme Inhibition Scintillation Proximity Assay (SPA)

[2] = Table F, read-out: METHOD 3: PDE11 IC50

T2 sequence (Q9HCR9 with tags, fused parts or gaps DUP921-921 limits assumed): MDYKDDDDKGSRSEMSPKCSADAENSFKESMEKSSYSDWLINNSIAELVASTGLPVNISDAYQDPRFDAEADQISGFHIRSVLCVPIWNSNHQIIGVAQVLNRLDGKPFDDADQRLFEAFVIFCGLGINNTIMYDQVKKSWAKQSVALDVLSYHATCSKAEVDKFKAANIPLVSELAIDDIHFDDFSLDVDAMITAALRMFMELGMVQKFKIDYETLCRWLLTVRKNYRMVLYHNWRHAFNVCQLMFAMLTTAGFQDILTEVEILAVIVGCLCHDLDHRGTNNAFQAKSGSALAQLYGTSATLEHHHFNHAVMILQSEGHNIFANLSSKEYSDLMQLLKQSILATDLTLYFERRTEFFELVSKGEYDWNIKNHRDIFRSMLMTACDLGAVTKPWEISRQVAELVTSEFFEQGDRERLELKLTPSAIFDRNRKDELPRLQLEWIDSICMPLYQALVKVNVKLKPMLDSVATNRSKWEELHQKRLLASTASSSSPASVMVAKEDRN

Row | SMILES | maximal reduction of blood pressure from pre-dose baseline in comparison to vehicle treated group [1] | IC50 (PDE5 enzyme) | IC50 (PDE11 enzyme; [2]) | IC50 (PDE6 enzyme) | IC50 (PDE11 enzyme; METHOD 3: PDE11 IC50, Table F)
1 | CCOC(=O)[C@H](CCc1ccccc1)N[C@@H](C)C(=O)N1CCC[C@H]1C(=O)O [Enalapril, enalapril] | 22±2 mmHg | – | – | – | –
2 | CCOCCn1nc(C)c2nc(N3C[C@@H]4C[C@H]3CN4)nc(Nc3cc(C)ccn3)c21 [WO2004096810 Example 236] | – | 2.51 nM | – | – | –
3 | CCOCCn1nc(C)c2nc(N3CC4CCC3CN4)nc(Nc3cc(C)ccn3)c21 (stereo not drawn) [WO2004096810 Example 237] | – | 0.67 nM | – | – | –
4 | CCOCCn1nc(C)c2nc(N3C[C@@H]4C[C@H]3CN4)nc(Nc3ccc(C)cn3)c21 [WO2004096810 Example 240] | – | > 100 nM | – | – | –
5 | CCOCCn1nc(C)c2nc(N3C[C@@H]4C[C@H]3CN4)nc(Nc3ccncn3)c21 [WO2004096810 Example 241] | – | 48.7 nM | – | – | –
6 | CCOCCn1nc(COC)c2nc(N3CC4CCC(C3)N4)nc(Nc3cc(C)ccn3)c21 [WO2004096810 Example 242] | – | 0.62 nM | – | – | –
7 | CCOCCn1nc(C)c2nc(N3CC4C[C@@H]3CN4)nc(Nc3cc(C)ccn3)c21 [WO2004096810 Example 244] | – | 2.54 nM | – | – | –
8 | Cc1ccnc(Nc2nc(N(C)[C@H]3CCN(C)C3)nc3c(C)nn(CCOCC(F)(F)F)c23)c1 [WO2004096810 Example 245] | – | 1.55 nM | 390 nM | 250 nM | –
9 | Cc1nccc(Nc2nc(N3CCN[C@H](C)C3)nc3c(C)nn(CCOCC(F)(F)F)c23)n1 [WO2004096810 Example 246] | – | 4.46 nM | 4320 nM | 657 nM | –
10 | CCc1nn(CCOCC(F)(F)F)c2c(Nc3ccnnc3)nc(N3CCN[C@H](C)C3)nc12 [WO2004096810 Example 248] | – | 0.3 nM | 316 nM | 9.92 nM | –
11 | CCc1nn(CCOCC(F)(F)F)c2c(Nc3ccncn3)nc(N3CCN[C@H](C)C3)nc12 [WO2004096810 Example 249] | – | 0.16 nM | 1190 nM | 5.1 nM | –
12 | CCc1nn(CCOCC(F)(F)F)c2c(Nc3ccnc(C)n3)nc(N3CCN[C@H](C)C3)nc12 [WO2004096810 Example 250] | – | 2.37 nM | 3120 nM | 221 nM | –
13 | CCc1nn(CCOCC(F)(F)F)c2c(Nc3cc(C)ncn3)nc(N(C)C3CCN(C)CC3)nc12 [WO2004096810 Example 251] | – | 0.25 nM | – | 9.51 nM | 1860 nM
14 | COCc1nn(CCOCC(F)(F)F)c2c(Nc3cccc(C)n3)nc(N3CCN[C@H](C)C3)nc12 [WO2004096810 Example 252] | – | 2.81 nM | 874 nM | 307 nM | –
15 | COCc1nn(CCOCC(F)(F)F)c2c(Nc3cccc(C)c3)nc(N3CCN[C@H](C)C3)nc12 [WO2004096810 Example 253] | – | 1.2 nM | 312 nM | 100 nM | –
16 | CCN(C)c1nc(Nc2ccc(=O)n(C)c2)c2c(n1)c(COC)nn2CCOCC(F)(F)F [WO2004096810 Example 254] | – | 0.59 nM | 2880 nM | 188 nM | –
17 | CCOCc1nn(CCOCC(F)(F)F)c2c(Nc3cccc(C)n3)nc(N3CCN[C@H](C)C3)nc12 [WO2004096810 Example 255] | – | 1.43 nM | 937 nM | 207 nM | –
18 | CCOCc1nn(CCOCC(F)(F)F)c2c(Nc3cc(C)ccn3)nc(N3CCN[C@H](C)C3)nc12 [WO2004096810 Example 256] | – | 3.82 nM | 913 nM | 275 nM | –
19 | Cc1cccc(Nc2nc(N3CCNCC3)nc3c(C)nn(CCOCC(F)(F)F)c23)n1 [WO2004096810 Example 258] | – | 1.99 nM | 215 nM | 198 nM | –
20 | COCc1nn(CCOCC(F)(F)F)c2c(Nc3cc(C)ccn3)nc(N3CC4CCC(C3)N4)nc12 [WO2004096810 Example 259] | – | 3.74 nM | – | 204 nM | 199 nM
21 | CCc1nn(CCOC)c2c(Nc3cc(C)ccn3)nc(NC)nc12 [compound 1] | – | 16.2 nM | – | – | –
22 | CCOCCn1nc(CC)c2nc(N(C)C3CCN(C)CC3)nc(Nc3ccncn3)c21 [compound 2] | – | 0.48 nM | – | – | –
